From patent US20050107450A1, “Dosing regimen for ppar-gamma activators” (priority 2001, published 2005)
Where two headings read alike, the source gives them in different places.

How the values were obtained:
[1] = system: Normal Han Wistar female adult rats; experiment: Study 1: rat model of PPAR-gamma activator induced fluid retention/edema; assay type: in vivo; conditions: 8 mg/kg bid oral, 21 days, compared with vehicle treated control rats
Protocol: Rat Model of PPAR-Gamma Activator Induced Fluid Retention/Edema
Normal Han Wistar female adult rats were housed in metabolic cages and orally dosed (8 mg/kg, bid) with PPAR-gamma activator or vehicle (PEG400, 1 ml/kg) for 21 days. Electrolyte and water balance, plasma volume, hematocrit, and interstitial fluid volume were measured. […] In addition, there was a 50% increase in interstitial fluid volume, correlating to an edematous state.

[2] = system: Zucker Diabetic Fatty (ZDF) rats
Protocol: Model of PPAR-Gamma Activator Induced Efficacy/Glycemic Control
Two glucose-matched groups (n=6/group) of Zucker Diabetic Fatty (ZDF) rats, 7-8 weeks of age, were treated with vehicle (n-methylglucamine, 0.05M, 1 ml/kg, p.o.) or PPAR-gamma activator (5 mg/kg, bid).

ZDF rats = conditions: for heart weight/body weight ratio versus normal range: literature normal 0.23 (0.19-0.25); for rats with continued glycemic control (non-fasted plasma glucose less than 250 mg/dl): five weeks, of 8 rats
Protocol: Less Than Daily Dosing with PPAR-gamma Activator
Three groups of 8 plasma glucose-matched ZDF rats with non-fasted glucose values greater than 250 mg/dl were dosed with PPAR-gamma activator. During the study plasma glucose and serum albumin were measured weekly, HbA1c was measured every other week, and heart weights and body weights were measured terminally. Reduction of plasma glucose and HbA1c are markers for anti-diabetic efficacy (glycemic control). Decreased plasma albumin concentration is a marker for plasma volume expansion or hemodilution. The heart weight-to-body weight ratio is a marker for increased cardiac output secondary to volume expansion.
All three groups were initially dosed with PPAR-gamma activator for one week at 5 mg/kg twice daily, in order to achieve glycemic control as shown by plasma glucose less than 250 mg/dl, and volume expansion as shown by reduced serum albumin.
Following the first week one group (Group BID) was continued on the daily dosing regimen while the other two were moved to less than daily dosing. Group BID continued to be dosed at 5 mg/kg twice daily, Group MWF was dosed at 10 mg/kg per day three times weekly (Monday/Wednesday/Friday), and Group MF was dosed at 10 mg/kg per day twice weekly (Monday/Friday). These three dosing regimens were continued for five weeks.

[3] = system: Normal Han Wistar female adult rats; experiment: Study 2: rat model of PPAR-gamma activator induced cardiovascular changes leading to fluid retention and edema; assay type: in vivo
Protocol: Rat Model of PPAR-Gamma Activator Induced Cardiovascular Changes Leading to Fluid Retention and Edema
Normal Han Wistar female adult rats were chronically instrumented for measurement of cardiac output, blood pressure and total peripheral resistance and orally dosed (8 mg/kg, bid) with PPAR-gamma activator or vehicle (PEG400, 1 ml/kg) for 10 days. Data were collected for 7 days prior to the start of dosing, for 10 days of dosing, and for 7 days after discontinuation of dosing. […] The decrease in total peripheral resistance is believed to be the initial pharmacodynamic effect of PPAR-gamma activators leading to fluid retention and edema.

[4] = after dosing was discontinued (10 days of 8 mg/kg bid)

- decrease in hematocrit [1]: 6%
- electrolyte and water retention [1]: sustained increase
- increase in interstitial fluid volume [1]: 50%
- increase in plasma volume [1]: 6%
- hematocrit, end-of-treatment value ([2]; 5 mg/kg bid, four weeks): 47%
- time for hematocrit to return to control value ([2]; after discontinuation of 5 mg/kg bid): ≤ 3 days
- hematocrit after discontinuation (control value) ([2]; within 3 days after discontinuation of 5 mg/kg bid): 52%
- serum albumin concentration (ZDF rats; after initial week of 5 mg/kg twice daily, all rats, pre-treatment 3.8 gm/dl): 3.5 gm/dl
Structure (SMILES): Cc1oc(-c2ccccc2)nc1CCOc1ccc(C[C@H](Nc2ccccc2C(=O)c2ccccc2)C(=O)O)cc1 [GI262570, farglitazar]
- average non-fasted plasma glucose ([2]; 5 mg/kg bid, after four weeks, at the time dosing was discontinued, vehicle 464 mg/dl): 154 mg/dL
- fluid status of treated rats ([2]; 5 mg/kg bid, after four weeks, n=6): volume expanded and two were overtly edematous
- average plasma glucose ([2]; 10 days after discontinuation of 5 mg/kg bid treatment, vehicle 462 mg/dl): 175 mg/dL
- heart weight/body weight ratio versus normal range (ZDF rats; BID dose group): increased beyond the normal range
- increase in terminal heart weight to body weight ratio (ZDF rats; BID group compared to the MWF and MF dose groups): 13%
- serum albumin concentration versus pre-treatment baseline (ZDF rats; BID group, throughout dosing): remained below the pre-treatment baseline value
- rats with continued glycemic control (non-fasted plasma glucose less than 250 mg/dl) (ZDF rats; Group BID, 5 mg/kg twice daily): 8
- rats with continued glycemic control (non-fasted plasma glucose less than 250 mg/dl) (ZDF rats; Group MF, 10 mg/kg per day twice weekly): 5
- rats with continued glycemic control (non-fasted plasma glucose less than 250 mg/dl) (ZDF rats; Group MWF, 10 mg/kg per day three times weekly): 6
- plasma glucose during the last two weeks of study (ZDF rats; MWF and MF dose groups (11 responding rats) versus BID, still well below pre-dosing levels): slightly higher
- heart weight/body weight ratio versus normal range (ZDF rats; MWF and MF dose groups): within normal ranges
- serum albumin concentration versus pre-treatment baseline (ZDF rats; MWF and MF groups, by day 14 of reduced frequency dosing): returned to and remained at pre-treatment baseline values
- mean non-fasted plasma glucose (ZDF rats; after initial week of 5 mg/kg twice daily, all rats, pre-treatment 321 mg/dl): 138 mg/dL
- HbA1c (ZDF rats; all 19 animals with glycemic control (BID, MWF, MF groups)): below 6%
- onset of change in total peripheral resistance and cardiac output after the initial dose ([3]; 8 mg/kg bid oral): within six hours
- time at which total peripheral resistance and cardiac output changes reached steady state ([3]; 8 mg/kg bid oral): by treatment day four
- cardiac output ([3]; 8 mg/kg bid oral, 10 days): increased
- total peripheral resistance ([3]; 8 mg/kg bid oral, 10 days): decreased
- full recovery of total peripheral resistance and cardiac output [3, 4]: after four days
- time until total peripheral resistance and cardiac output began to return toward control values [3, 4]: ≤ 24 h
